Test results from PubChem BioAssay (NCI).
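Grown in 96-well plates, cells were treated for 48 hours with each compound at five concentrations. Insufficient inhibition: endpoint recorded as highest concentration tested. Here, GI50 denotes the concentration required for 50% inhibition of growth. Definition used: TGI = concentration required for complete inhibition of growth.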

Columns and labels:
Experiment in all cases: inhibition of tumour cell growth, NCI panel, 48 h
NCI-H522 lung = test system: NCI-H522 lung
OVCAR-5 ovarian = test system: OVCAR-5 ovarian
MDA-MB-468 breast = test system: MDA-MB-468 breast
A549 NSCLC = test system: A549 NSCLC
SK-MEL-5 melanoma = test system: SK-MEL-5 melanoma
ACHN renal = test system: ACHN renal
CCRF-CEM leukemia = test system: CCRF-CEM leukemia
COLO 205 colon = test system: COLO 205 colon
UACC-257 melanoma = test system: UACC-257 melanoma
HOP-62 NSCLC = test system: HOP-62 NSCLC
SW-620 colon = test system: SW-620 colon
SF-539 CNS = test system: SF-539 CNS
SNB-75 CNS = test system: SNB-75 CNS
MOLT-4 leukemia = test system: MOLT-4 leukemia
SK-OV-3 ovarian = test system: SK-OV-3 ovarian
HCT-116 colon = test system: HCT-116 colon
SF-295 CNS = test system: SF-295 CNS
RXF 393 renal = test system: RXF 393 renal
MDA-MB-435 = test system: MDA-MB-435
PC-3 prostate = test system: PC-3 prostate
NCI/ADR-RES ovarian = test system: NCI/ADR-RES ovarian
OVCAR-4 ovarian = test system: OVCAR-4 ovarian
HT29 colon = test system: HT29 colon
SNB-19 CNS = test system: SNB-19 CNS
IGROV1 ovarian = test system: IGROV1 ovarian
HCT-15 colon = test system: HCT-15 colon
HCC-2998 colon = test system: HCC-2998 colon
SF-268 CNS = test system: SF-268 CNS
HL-60(TB) leukemia = test system: HL-60(TB) leukemia
MALME-3M melanoma = test system: MALME-3M melanoma
U251 CNS = test system: U251 CNS
NCI-H23 lung = test system: NCI-H23 lung
SK-MEL-28 melanoma = test system: SK-MEL-28 melanoma
MCF7 breast = test system: MCF7 breast
SK-MEL-2 melanoma = test system: SK-MEL-2 melanoma
M14 melanoma = test system: M14 melanoma
786-0 renal = test system: 786-0 renal
HOP-92 NSCLC = test system: HOP-92 NSCLC
RPMI-8226 leukemia = test system: RPMI-8226 leukemia
UACC-62 melanoma = test system: UACC-62 melanoma
CAKI-1 renal = test system: CAKI-1 renal
BT-549 breast = test system: BT-549 breast
NCI-H226 lung = test system: NCI-H226 lung
NCI-H460 lung = test system: NCI-H460 lung
HS 578T breast = test system: HS 578T breast
OVCAR-8 ovarian = test system: OVCAR-8 ovarian
K-562 leukemia = test system: K-562 leukemia
TK-10 renal = test system: TK-10 renal
OVCAR-3 ovarian = test system: OVCAR-3 ovarian
MDA-MB-231 breast = test system: MDA-MB-231 breast
EKVX NSCLC = test system: EKVX NSCLC
KM12 colon = test system: KM12 colon
T-47D breast = test system: T-47D breast
DU-145 prostate = test system: DU-145 prostate
SN12C renal = test system: SN12C renal
UO-31 renal = test system: UO-31 renal
LOX IMVI melanoma = test system: LOX IMVI melanoma

For `CN(C)c1nc(NCCNS(=O)(=O)c2ccc(C3=Nc4c(N)nc(N)nc4NC(c4ccccc4)C3)cc2)nc(Nc2ccc(F)cc2)n1` (centres undefined), the GI50 (NCI-H522 lung) was 77.4 µM, the TGI (NCI-H522 lung) was greater than 100 µM and the GI50 (OVCAR-5 ovarian) was greater than 100 µM. For the same compound, the TGI (OVCAR-5 ovarian) was greater than 100 µM, the GI50 (MDA-MB-468 breast) was 3.37 µM and the TGI (MDA-MB-468 breast) was 13.7 µM. The GI50 (A549 NSCLC) was greater than 100 µM, the TGI (A549 NSCLC) was greater than 100 µM and the GI50 (SK-MEL-5 melanoma) was 5.81 µM. It also gave a TGI (SK-MEL-5 melanoma) of 20.5 µM, a GI50 (ACHN renal) greater than 100 µM and a TGI (ACHN renal) greater than 100 µM. For the same compound, the GI50 (CCRF-CEM leukemia) was 4.02 µM, the TGI (CCRF-CEM leukemia) was greater than 100 µM and the GI50 (COLO 205 colon) was 16.4 µM. It also gave a TGI (COLO 205 colon) greater than 100 µM, a GI50 (UACC-257 melanoma) of 87.2 µM and a TGI (UACC-257 melanoma) greater than 100 µM. For the same compound, the GI50 (HOP-62 NSCLC) was 99.7 µM, the TGI (HOP-62 NSCLC) was greater than 100 µM and the GI50 (SW-620 colon) was 40.4 µM. The TGI (SW-620 colon) was greater than 100 µM, the GI50 (SF-539 CNS) was 12 µM and the TGI (SF-539 CNS) was 63.8 µM. The GI50 (SNB-75 CNS) was 3.58 µM, the TGI (SNB-75 CNS) was greater than 100 µM and the GI50 (MOLT-4 leukemia) was 3.11 µM. For the same compound, the TGI (MOLT-4 leukemia) was greater than 100 µM, the GI50 (SK-OV-3 ovarian) was greater than 100 µM and the TGI (SK-OV-3 ovarian) was greater than 100 µM. For the same compound, the GI50 (HCT-116 colon) was 7.37 µM, the TGI (HCT-116 colon) was greater than 100 µM and the GI50 (SF-295 CNS) was 9.5 µM. It also gave a TGI (SF-295 CNS) greater than 100 µM, a GI50 (RXF 393 renal) of 2.55 µM and a TGI (RXF 393 renal) of 8.95 µM. The GI50 (MDA-MB-435) was 15 µM, the TGI (MDA-MB-435) was greater than 100 µM and the GI50 (PC-3 prostate) was 3.84 µM. The TGI (PC-3 prostate) was greater than 100 µM, the GI50 (NCI/ADR-RES ovarian) was greater than 100 µM and the TGI (NCI/ADR-RES ovarian) was greater than 100 µM. It also gave a GI50 (OVCAR-4 ovarian) of 74.6 µM, a TGI (OVCAR-4 ovarian) greater than 100 µM and a GI50 (HT29 colon) of 5.32 µM. It also gave a TGI (HT29 colon) greater than 100 µM, a GI50 (SNB-19 CNS) of 21.8 µM and a TGI (SNB-19 CNS) greater than 100 µM. The GI50 (IGROV1 ovarian) was 5.76 µM, the TGI (IGROV1 ovarian) was greater than 100 µM and the GI50 (HCT-15 colon) was greater than 100 µM. For the same compound, the TGI (HCT-15 colon) was greater than 100 µM, the GI50 (HCC-2998 colon) was 11.7 µM and the TGI (HCC-2998 colon) was greater than 100 µM. It also gave a GI50 (SF-268 CNS) of 9.85 µM, a TGI (SF-268 CNS) greater than 100 µM and a GI50 (HL-60(TB) leukemia) of 4.24 µM. The TGI (HL-60(TB) leukemia) was greater than 100 µM, the GI50 (MALME-3M melanoma) was 7.34 µM and the TGI (MALME-3M melanoma) was greater than 100 µM. It also gave a GI50 (U251 CNS) of 18.4 µM, a TGI (U251 CNS) greater than 100 µM and a GI50 (NCI-H23 lung) greater than 100 µM. For the same compound, the TGI (NCI-H23 lung) was greater than 100 µM, the GI50 (SK-MEL-28 melanoma) was greater than 100 µM and the TGI (SK-MEL-28 melanoma) was greater than 100 µM. For the same compound, the GI50 (MCF7 breast) was 3.85 µM, the TGI (MCF7 breast) was 85.5 µM and the GI50 (SK-MEL-2 melanoma) was 28.5 µM. For the same compound, the TGI (SK-MEL-2 melanoma) was greater than 100 µM, the GI50 (M14 melanoma) was 24.4 µM and the TGI (M14 melanoma) was greater than 100 µM. The GI50 (786-0 renal) was 7.88 µM, the TGI (786-0 renal) was greater than 100 µM and the GI50 (HOP-92 NSCLC) was 2.18 µM. It also gave a TGI (HOP-92 NSCLC) of 9.96 µM, a GI50 (RPMI-8226 leukemia) of 3.32 µM and a TGI (RPMI-8226 leukemia) greater than 100 µM. It also gave a GI50 (UACC-62 melanoma) of 31.5 µM, a TGI (UACC-62 melanoma) greater than 100 µM and a GI50 (CAKI-1 renal) of 9.73 µM. For the same compound, the TGI (CAKI-1 renal) was greater than 100 µM, the GI50 (BT-549 breast) was 8.82 µM and the TGI (BT-549 breast) was greater than 100 µM. It also gave a GI50 (NCI-H226 lung) greater than 100 µM, a TGI (NCI-H226 lung) greater than 100 µM and a GI50 (NCI-H460 lung) of 6.49 µM. It also gave a TGI (NCI-H460 lung) greater than 100 µM, a GI50 (HS 578T breast) of 6.43 µM and a TGI (HS 578T breast) greater than 100 µM. For the same compound, the GI50 (OVCAR-8 ovarian) was 61.4 µM, the TGI (OVCAR-8 ovarian) was greater than 100 µM and the GI50 (K-562 leukemia) was 4.33 µM. For the same compound, the TGI (K-562 leukemia) was greater than 100 µM, the GI50 (TK-10 renal) was greater than 100 µM and the TGI (TK-10 renal) was greater than 100 µM. The GI50 (OVCAR-3 ovarian) was 69.3 µM, the TGI (OVCAR-3 ovarian) was greater than 100 µM and the GI50 (MDA-MB-231 breast) was 6.16 µM. For the same compound, the TGI (MDA-MB-231 breast) was 67.5 µM, the GI50 (EKVX NSCLC) was 6.65 µM and the TGI (EKVX NSCLC) was greater than 100 µM. For the same compound, the GI50 (KM12 colon) was 8.8 µM, the TGI (KM12 colon) was greater than 100 µM and the GI50 (T-47D breast) was 5.12 µM. It also gave a TGI (T-47D breast) greater than 100 µM, a GI50 (DU-145 prostate) greater than 100 µM and a TGI (DU-145 prostate) greater than 100 µM. The GI50 (SN12C renal) was 7.83 µM, the TGI (SN12C renal) was greater than 100 µM and the GI50 (UO-31 renal) was greater than 100 µM. It also gave a TGI (UO-31 renal) greater than 100 µM, a GI50 (LOX IMVI melanoma) of 9.96 µM and a TGI (LOX IMVI melanoma) of 25.7 µM.
